Consider 30 molecules from ChEMBL document CHEMBL2095176, “GSK Tuberculosis Screening Data”.

The test system of series [1] is Mycobacterium tuberculosis H37Rv. Description: microbe, parasite or virus in culture.
Description: GSK_TB: Intracellular minimum inhibitory concentration (MIC) H37Rv assay
The nature of series [2]: physchem. As to conditions: buffer, pH 7.4.
Description: GSK_TB: GSK in-house hydrophobicity assay at pH7.4 (logD)
A short description of series [3]: physchem. Particulars: phosphate buffered saline, pH 7.4.
Series [4] can be described thus: physchem. Particulars: octanol/water.
Description: GSK_TB: GSK in-house hydrophobicity assay (logP)

≈ marks a conversion by molar mass, not a printed value.

For orientation: logD means lipophilicity at a set pH, counting ionised and neutral species. Low readings indicate a more hydrophilic compound, high ones a more lipophilic compound. By kinetic solubility is commonly meant solubility judged after dilution from a stock solution rather than from solid. The logP is the decadic logarithm of the partition coefficient of the neutral form, usually between octanol and water. The low end stands for lower lipophilicity, the high end for higher lipophilicity. For the molecule `NC(=O)c1cc(-c2ccsc2)ccc1OCCOc1ccccc1`, the MIC90 in series [1] turned out to be 3.5 µM (≈ 1.19 µg/mL). Besides, in “physchem [2]”, the logD was determined as 5.44. The same molecule showed a kinetic solubility in “physchem [3]” of 1 µM (≈ 0.339 µg/mL). The molecule also returned a log partition coefficient (logP) in the series “physchem [4]” of 5.78.

`COc1ccc(CCNc2cc(-c3ccccc3)nc3ncnn23)cc1` had an MIC90 in series [1] of 0.6 µM (≈ 0.207 µg/mL).

The molecule `O=C(c1cc2ccccc2o1)N1CCN(Cc2ccc3c(c2)OCO3)CC1` yielded an MIC90 in series [1] of 2.7 µM (≈ 0.984 µg/mL). Moreover, in “physchem [2]”, the logD was found to be 5.63. Further, in the series “physchem [3]”, the kinetic solubility amounted to 171 µM (≈ 62.3 µg/mL). Besides, the logP in “physchem [4]” was determined as 5.83.

On to `Cc1nc2ccccn2c1C(=O)Nc1ccc(C(C)(C)C)cc1`, for which, in series [1], the MIC90 came to 6.2 µM (≈ 1.91 µg/mL). In the series “physchem [2]”, this molecule gave a logD of 5.81. Besides, in the series “physchem [3]”, the kinetic solubility stood at 85 µM (≈ 26.1 µg/mL). Further, the logP in the series “physchem [4]” amounted to 6.03.

In the case of `Nc1nc2cc(-c3cncc(Oc4ccc(F)cc4)c3)ccc2[nH]1.O=C(O)C(F)(F)F.O=C(O)C(F)(F)F`, the MIC90 in series [1] amounted to 0.347 µM. The molecule also yielded a logD in “physchem [2]” of 3.11. For the same molecule, the solubility (kinetic) in the series “physchem [3]” was 100 µM. In the series “physchem [4]”, this molecule came in with a logP of 3.12.

As to `CCN(Cc1ccc2c(c1)OCO2)C(=O)CSc1nc(NC)c2ccccc2n1`, the MIC90 in series [1] was 2.8 µM (≈ 1.15 µg/mL). Also, the logD in “physchem [2]” amounted to 4.69. In “physchem [3]”, this molecule gave a solubility (kinetic) of 74 µM (≈ 30.4 µg/mL). This molecule registered a logP in the series “physchem [4]” of 4.83.

Consider `Br.CC1(C)N=C(N)N=C(N)N1OCCc1ccc2ccccc2c1`, for which the MIC90 in series [1] is 2.32 µM. The same molecule showed a logD in “physchem [2]” of 2.92. Also, in the series “physchem [3]”, the solubility (kinetic) was 201 µM. In addition, in the series “physchem [4]”, the logP stood at 4.23.

As for `O=C(NCc1cc(Cl)cc(Cl)c1)c1c(C(F)(F)F)nc2ccccn12`, in series [1], the MIC90 is 3.1 µM (≈ 1.2 µg/mL). This molecule had a logD in “physchem [2]” of 6.09. The molecule also gave a solubility (kinetic) in “physchem [3]” of 1 µM (≈ 0.388 µg/mL). The logP in the series “physchem [4]” worked out at 6.48.

For `O=C(OCc1c(F)cccc1Cl)c1ccc(-n2ncc(Cl)c(Cl)c2=O)cc1`, the MIC90 in series [1] turned out to be 4.9 µM (≈ 2.09 µg/mL). The same molecule showed a kinetic solubility in the series “physchem [3]” of 22 µM (≈ 9.41 µg/mL).

With `C=CCNc1nc(SC)nc2ccccc12`, the MIC90 in series [1] turned out to be 3.2 µM (≈ 0.74 µg/mL). The molecule also registered a logD in the series “physchem [2]” of 4.97. The same molecule displayed a solubility (kinetic) in “physchem [3]” of 279 µM (≈ 64.5 µg/mL). Further, in the series “physchem [4]”, the logP was found to be 5.13.

Take `CNc1nc(SCC(=O)N(C)Cc2ccc(Cl)s2)nc2ccccc12`: in series [1], the MIC90 was 5.62 µM (≈ 2.21 µg/mL). Also, in the series “physchem [2]”, the logD was found to be 5.07. The molecule also registered a kinetic solubility in the series “physchem [3]” of 56 µM (≈ 22 µg/mL). Besides, in “physchem [4]”, the lipophilicity (logP) was 5.23.

In turn, `Cc1ccc2nc(C(F)(F)F)c(C(=O)NCc3ccc(C)o3)n2c1` yielded an MIC90 in series [1] of 3.43 µM (≈ 1.16 µg/mL). Besides, the logD in “physchem [2]” turned out to be 4.97. This molecule also registered a kinetic solubility in “physchem [3]” of 259 µM (≈ 87.4 µg/mL). Moreover, the logP in “physchem [4]” was 5.18.

In series [1], `Br.CCCc1cc(C(C)=O)ccc1OCCCON1C(=N)N=C(N)NC1(C)C` showed an MIC90 of 2.34 µM. The same molecule came in with a logD in “physchem [2]” of 2.92. The kinetic solubility in the series “physchem [3]” stood at 201 µM. The logP in “physchem [4]” was determined as 4.02.

In turn, `Cc1ccc2nc(C)c(C(=O)NCc3cccs3)n2c1` yielded an MIC90 in series [1] of 0.2 µM (≈ 0.0571 µg/mL).

Take `Cc1ccc2nc(C(F)(F)F)c(C(=O)NCc3cccc(OC(C)C)c3)n2c1`: in series [1], the MIC90 amounted to 2.1 µM (≈ 0.822 µg/mL). Further, the logD in “physchem [2]” came to 6.19. For the same molecule, the kinetic solubility in the series “physchem [3]” is 1 µM (≈ 0.391 µg/mL). In the series “physchem [4]”, this molecule yielded a logP of 6.43.

The molecule `CSc1ccc(-c2nnc(NC(=O)c3ccc(Cl)s3)o2)cc1` returned an MIC90 in series [1] of 6.61 µM (≈ 2.32 µg/mL). Besides, the logD in the series “physchem [2]” worked out at 3.76. For the same molecule, the solubility (kinetic) in “physchem [3]” came to 67 µM (≈ 23.6 µg/mL). The molecule also showed a logP in the series “physchem [4]” of 6.07.

For `c1ccc(-c2nnc(Sc3ccnc(N4CCN(c5ccncc5)CC4)n3)n2CCCN2CCOCC2)nc1`, the MIC90 in series [1] is 6.38 µM (≈ 3.48 µg/mL). The molecule further came in with a pH-dependent lipophilicity (logD) in the series “physchem [2]” of 2.08. The molecule also showed a kinetic solubility in the series “physchem [3]” of 154 µM (≈ 83.9 µg/mL). Moreover, the logP in the series “physchem [4]” turned out to be 3.22.

The molecule `Cc1n[nH]c(C)c1S(=O)(=O)NCc1nc(NCCCc2ccccc2)c2ccccc2n1` displayed an MIC90 in series [1] of 1.8 µM (≈ 0.811 µg/mL). The molecule also came in with a logD in “physchem [2]” of 4.32. The molecule further showed a solubility (kinetic) in the series “physchem [3]” of 240 µM (≈ 108 µg/mL). Further, the logP in the series “physchem [4]” turned out to be 4.52.

Take `CC(=O)N1CCc2cc3nc(C)cc(C)c3cc21`: the MIC90 in series [1] was determined as 3.7 µM (≈ 0.889 µg/mL). Moreover, the logD in the series “physchem [2]” was found to be 2.64. In “physchem [3]”, this molecule yielded a kinetic solubility of 309 µM (≈ 74.3 µg/mL). In “physchem [4]”, the lipophilicity (logP) is 2.65.

On to `COc1ccc2sc(Nc3nc(-c4ccccn4)cs3)nc2c1`, for which the MIC90 in series [1] was 8.2 µM (≈ 2.79 µg/mL). Besides, the logD in the series “physchem [2]” worked out at 5.35. Besides, in the series “physchem [3]”, the solubility (kinetic) is 22 µM (≈ 7.49 µg/mL). The logP in the series “physchem [4]” was found to be 5.34.

In turn, `CC(Oc1ccccc1)C(=O)Nc1nc(-c2ccccn2)cs1` (configuration not stated) came in with an MIC90 in series [1] of 9.77 µM (≈ 3.18 µg/mL). This molecule displayed a logD in the series “physchem [2]” of 5.07. In “physchem [3]”, the solubility (kinetic) was 174 µM (≈ 56.6 µg/mL). In the series “physchem [4]”, the logP was 5.06.

In series [1], `COc1cc2ccccc2cc1C(=O)NCc1cccc(-c2ccccc2OC)c1` gave an MIC90 of 2.2 µM (≈ 0.874 µg/mL). For the same molecule, in the series “physchem [2]”, the pH-dependent lipophilicity (logD) turned out to be 7.21. In “physchem [3]”, this molecule gave a kinetic solubility of 84 µM (≈ 33.4 µg/mL). The logP in the series “physchem [4]” came to 7.58.

Turning to `O=C(N[C@@H](Cc1ccccc1)C(=O)Nc1ccccc1N1CCOCC1)c1cccs1`, the MIC90 in series [1] was 6.6 µM (≈ 2.87 µg/mL). In the series “physchem [2]”, this molecule returned a logD of 5.53. This molecule gave a solubility (kinetic) in “physchem [3]” of 52 µM (≈ 22.6 µg/mL). In “physchem [4]”, this molecule came in with a logP of 5.78.

In series [1], `COc1ccc2nc(C)cc(OCC(=O)Nc3cc(C)cc(C)c3)c2c1` returned an MIC90 of 0.3 µM (≈ 0.105 µg/mL).

`O=C(CCC1CCCCC1)Nc1cccc(-c2nnc(-c3ccco3)o2)c1` came in with an MIC90 in series [1] of 6.1 µM (≈ 2.23 µg/mL). Also, in the series “physchem [2]”, the logD came to 6.84. The kinetic solubility in “physchem [3]” was 1 µM (≈ 0.365 µg/mL). The logP in “physchem [4]” amounted to 7.18.

`CCOc1ccc(OCc2ccc(C(=O)NNC(=O)c3ccc([N+](=O)[O-])o3)cc2)cc1` showed an MIC90 in series [1] of 2.5 µM (≈ 1.06 µg/mL). The logD in “physchem [2]” amounted to 4.32. Further, the kinetic solubility in the series “physchem [3]” was 1 µM (≈ 0.425 µg/mL). This molecule came in with a logP in the series “physchem [4]” of 4.88.

In series [1], `N#Cc1ccc2c(c1)CCN(CCCSc1ccnc3cc(C(F)(F)F)ccc13)CC2` gave an MIC90 of 2.4 µM (≈ 1.06 µg/mL). Further, the logD in “physchem [2]” amounted to 7.96. Moreover, the solubility (kinetic) in “physchem [3]” worked out at 1 µM (≈ 0.442 µg/mL). Further, in the series “physchem [4]”, the logP came to 8.64.

As for `O=C(Nc1nnc(-c2ccc(Cl)s2)o1)c1ccc(Cl)s1`, the MIC90 in series [1] came to 7.76 µM (≈ 2.69 µg/mL).

In series [1], `CCCOC(=O)COc1ccc2c(=O)c(-c3ccccc3OC)coc2c1` had an MIC90 of 7.94 µM (≈ 2.93 µg/mL). This molecule displayed a log distribution coefficient (logD) in the series “physchem [2]” of 6. The same molecule yielded a logP in the series “physchem [4]” of 6.24.

For the molecule `CNc1nc(SC)nc2ccccc12`, the MIC90 in series [1] was determined as 0.2 µM (≈ 0.0411 µg/mL).
